Measured values from ChEMBL document CHEMBL3885861, “Open TG-GATES”.

Species on record: Rattus norvegicus
Experiment: Open TG-GATES - Regimen: Single
Type: toxicity, organism-based, Sprague-Dawley
Set-up: regimen Single, gender Male, age 6 weeks
Settings: in vivo, po, 0 mg/kg, route gavage, dose level Control; for Bas / Eos / Lym / MCHC / MCV / Mono / Neu / RBC / Ret / WBC: tissue Blood; for KIDNEY_L / KIDNEY_R / KIDNEY_TOTAL: tissue Kidney; for LIVER: tissue Liver; for ALP / AST / CRE / DBIL / GLC / IP / K / LDH / Na / PL / RALB / TBIL / TC / TP / gamma-GTP: tissue Plasma

Compound `CS(=O)(=O)O.Cc1ccc(NC(=O)c2ccc(CN3CCN(C)CC3)cc2)cc1Nc1nccc(-c2cccnc2)n1` [IMATINIB MESYLATE] has a Bas (3 h) of 0%, an Eos (3 h) of 0.6% and a Lym (3 h) of 77.4%. The MCHC (3 h) was 32.7%, the MCV (3 h) was 64.2 fL and the Mono (3 h) was 3%. For the same compound, the Neu (3 h) was 18.6%, the RBC (3 h) was 606.4 x10_4/ul and the Ret (3 h) was 9.4%. For the same compound, the WBC (3 h) was 98.6 x10_2/uL, the KIDNEY_L (3 h) was 0.9 g and the KIDNEY_R (3 h) was 0.9 g. It also gave a KIDNEY_TOTAL (3 h) of 1.7 g, an LIVER (3 h) of 9.6 g and an ALP (3 h) of 1737 IU/L. For the same compound, the AST (3 h) was 82.8 IU/L, the CRE (3 h) was 0.2 mg/dL and the DBIL (3 h) was 0.004 mg/dL. For the same compound, the GLC (3 h) was 184 mg/dL, the IP (3 h) was 8.3 mg/dL and the K (3 h) was 4.1 meq/L. For the same compound, the LDH (3 h) was 215.6 IU/L, the Na (3 h) was 143.2 meq/L and the PL (3 h) was 163.8 mg/dL. It also gave an RALB (3 h) of 4.1 g/dL, a TBIL (3 h) of 0.012 mg/dL and a TC (3 h) of 86.8 mg/dL. It also gave a TP (3 h) of 5.4 g/dL, a gamma-GTP (3 h) of 0.8 IU/L and a Bas (6 h) of 0%. The Eos (6 h) was 0.4%, the Lym (6 h) was 80.4% and the MCHC (6 h) was 33.1%. It also gave an MCV (6 h) of 63.3 fL, a Mono (6 h) of 3% and a Neu (6 h) of 15.2%. For the same compound, the RBC (6 h) was 615.4 x10_4/ul, the Ret (6 h) was 11.2% and the WBC (6 h) was 112.4 x10_2/uL. The KIDNEY_L (6 h) was 0.8 g, the KIDNEY_R (6 h) was 0.8 g and the KIDNEY_TOTAL (6 h) was 1.7 g. The LIVER (6 h) was 8.7 g, the ALP (6 h) was 1529.4 IU/L and the AST (6 h) was 72.4 IU/L. The CRE (6 h) was 0.2 mg/dL, the DBIL (6 h) was 0.006 mg/dL and the GLC (6 h) was 175.8 mg/dL. For the same compound, the IP (6 h) was 9.6 mg/dL, the K (6 h) was 4.2 meq/L and the Na (6 h) was 139.7 meq/L. It also gave a PL (6 h) of 152.4 mg/dL, an RALB (6 h) of 4 g/dL and a TBIL (6 h) of 0.022 mg/dL. It also gave a TC (6 h) of 86.4 mg/dL, a TP (6 h) of 5.5 g/dL and a gamma-GTP (6 h) of 0.9 IU/L. It also gave a Bas (9 h) of 0%, an Eos (9 h) of 0.8% and a Lym (9 h) of 76.4%. The MCHC (9 h) was 33.4%, the MCV (9 h) was 62.3 fL and the Mono (9 h) was 2.2%. It also gave a Neu (9 h) of 20.4%, an RBC (9 h) of 617 x10_4/ul and a Ret (9 h) of 9%. The WBC (9 h) was 86 x10_2/uL, the KIDNEY_L (9 h) was 0.9 g and the KIDNEY_R (9 h) was 0.9 g. The KIDNEY_TOTAL (9 h) was 1.8 g, the LIVER (9 h) was 8.1 g and the ALP (9 h) was 1372 IU/L. It also gave an AST (9 h) of 76.6 IU/L, a CRE (9 h) of 0.2 mg/dL and a DBIL (9 h) of 0.01 mg/dL. The GLC (9 h) was 170 mg/dL, the IP (9 h) was 9.5 mg/dL and the K (9 h) was 3.9 meq/L. The LDH (9 h) was 175 IU/L, the Na (9 h) was 140.3 meq/L and the PL (9 h) was 140.2 mg/dL. For the same compound, the RALB (9 h) was 4.1 g/dL, the TBIL (9 h) was 0.016 mg/dL and the TC (9 h) was 81.8 mg/dL. For the same compound, the TP (9 h) was 5.5 g/dL, the gamma-GTP (9 h) was 0.8 IU/L and the Bas (24 h) was 0%. The Eos (24 h) was 1%, the Lym (24 h) was 81.4% and the MCHC (24 h) was 32.9%. It also gave an MCV (24 h) of 65.5 fL, a Mono (24 h) of 2.4% and a Neu (24 h) of 14.6%. It also gave an RBC (24 h) of 607.4 x10_4/ul, a Ret (24 h) of 9.3% and a WBC (24 h) of 100.4 x10_2/uL. For the same compound, the KIDNEY_L (24 h) was 0.9 g, the KIDNEY_R (24 h) was 0.9 g and the KIDNEY_TOTAL (24 h) was 1.8 g. For the same compound, the LIVER (24 h) was 10 g, the ALP (24 h) was 1682.4 IU/L and the AST (24 h) was 68.2 IU/L. It also gave a CRE (24 h) of 0.2 mg/dL, a DBIL (24 h) of 0 mg/dL and a GLC (24 h) of 199.8 mg/dL. The IP (24 h) was 7.8 mg/dL, the K (24 h) was 4.2 meq/L and the LDH (24 h) was 195.2 IU/L. It also gave a Na (24 h) of 142.7 meq/L, a PL (24 h) of 149 mg/dL and an RALB (24 h) of 4.1 g/dL. It also gave a TBIL (24 h) of 0.004 mg/dL, a TC (24 h) of 75.2 mg/dL and a TP (24 h) of 5.8 g/dL. For the same compound, the gamma-GTP (24 h) was 1 IU/L.
